For experiment [1], the system named is transgenic C. elegans (tgMOR) that express mammalian MOR. Conditions: in vivo.
The subject of experiment [2] is Gpr139−/− mice. The experiment can be described thus: Conditioned place preference paradigm. Particulars: Gpr139−/− mice vs wild-type. The experiment is classed as in vivo.
The test system of experiment [3] is Gpr139−/− mice. Conditions: Gpr139−/− mice vs wild-type, multiple drug doses.

`CN1CC[C@]23c4c5ccc(O)c4O[C@H]2[C@@H](O)C=C[C@H]3[C@H]1C5` [morphine]: in experiment [1], the “time to maximum paralysis and recovery” value was “reached maximum paralysis and recovered more quickly”. In addition, the rewarding effects result in the experiment on Gpr139−/− mice [2] is “substantially augmented responses”. In addition, the “analgesia, maximal response and duration of effect” value in the experiment with Gpr139−/− mice [3] was “significantly increased morphine analgesia”.

Source of the values: patent US12303511B2 (priority 2018, dated 2025).
